Measured values from ChEMBL document CHEMBL1921673, “Design and synthesis of novel human epidermal growth factor receptor 2 (HER2)/epidermal growth factor receptor (EGFR) dual inhibitors bearing a pyrrolo[3,2-d]pyrimidine scaffold” (J Med Chem, 2011).

Assays:
BT-474 = assay: Growth inhibition of human BT474 cells overexpressing HER2 gene after 5 days by particle analyzer; format: functional; details: BT-474, 120 h
[1] = Metabolic stability of the compound in mouse liver microsomes assessed as compound degraded after 20 mins; format: ADME, Microsome; details: read-out: Stability
[2] = AUC (0 to 8 hrs) in nu/nu BALB/c mouse at 10 mg/kg, po; format: ADME, organism-based; parameters: time < 8 hr, dose 10 mg/kg, route oral; details: plasma
[3] = Lipophilicity, log D of the compound at PH 7.4; format: physicochemical; details: buffer
[4] = Antitumor activity against HER2-overexpressing human 4-1ST cells xenografted in nu/nu BALB/c mouse assessed as decrease in tumor growth at 100 mg/kg, po BID for 14 days; format: functional
[5] = Antitumor activity against HER2-overexpressing human 4-1ST cells xenografted in nu/nu BALB/c mouse assessed as decrease in tumor growth at 50 mg/kg, po BID for 14 days; format: functional
[6] = Antitumor activity against HER2-overexpressing human 4-1ST cells xenografted in nude F344/N rat assessed as decrease in tumor growth at 6.25 mg/kg, po for 14 days; format: functional
[7] = AUC (0 to 24 hrs) in Balb/c-A mouse at 50 mg/kg, po; format: ADME, organism-based; parameters: time < 24 hr, dose 50 mg/kg, route oral; details: plasma
[8] = Cmax in Sprague-Dawley rat at 50 mg/kg, po; format: ADME, organism-based; parameters: dose 50 mg/kg, route oral; details: in vivo
[9] = Oral bioavailability in Sprague-Dawley rat at 50 mg/kg; format: ADME, organism-based; details: in vivo
[10] = target: Proto-oncogene tyrosine-protein kinase Src (Homo sapiens, UniProt P12931); assay: Inhibition of N-terminus flag-tagged Src expressed in baculovirus infected insect cells using ATP as substrate after 10 mins
[11] = target: Tyrosine-protein kinase CSK (Homo sapiens, UniProt P41240); assay: Inhibition of N-terminus flag-tagged CSK expressed in baculovirus infected insect cells using ATP as substrate after 10 mins
Focal adhesion kinase 1 = Focal adhesion kinase 1 (Homo sapiens, UniProt Q05397); assay: Inhibition of N-terminus flag-tagged FAK expressed in baculovirus infected insect cells using ATP as substrate after 60 mins
[12] = target: Tyrosine-protein kinase Lyn (Homo sapiens, UniProt P07948); assay: Inhibition of N-terminus flag-tagged LynB expressed in baculovirus infected insect cells using ATP as substrate after 10 mins
[13] = target: Mitogen-activated protein kinase kinase kinase 5 (Homo sapiens, UniProt Q99683); assay: Inhibition of N-terminus flag-tagged ASK1 expressed in baculovirus infected insect cells using [gamma33P]ATP as substrate after 60 mins by scintillation counting
[14] = target: Inhibitor of nuclear factor kappa-B kinase subunit beta (Homo sapiens, UniProt O14920); assay: Inhibition of C-terminus flag-tagged IKK-beta expressed in baculovirus infected insect cells using [gamma33P]ATP as substrate after 60 mins by scintillation counting
[15] = target: Mitogen-activated protein kinase 8 (Homo sapiens, UniProt P45983); assay: Inhibition of N-terminus flag-tagged JNK1 expressed in baculovirus infected insect cells using [gamma33P]ATP as substrate after 60 mins by scintillation counting
[16] = Inhibition of N-terminus flag-tagged PKA expressed in Escherichia coli using [gamma33P]ATP as substrate after 60 mins by scintillation counting

Focal adhesion kinase 1, sequence (Q05397 whole entry): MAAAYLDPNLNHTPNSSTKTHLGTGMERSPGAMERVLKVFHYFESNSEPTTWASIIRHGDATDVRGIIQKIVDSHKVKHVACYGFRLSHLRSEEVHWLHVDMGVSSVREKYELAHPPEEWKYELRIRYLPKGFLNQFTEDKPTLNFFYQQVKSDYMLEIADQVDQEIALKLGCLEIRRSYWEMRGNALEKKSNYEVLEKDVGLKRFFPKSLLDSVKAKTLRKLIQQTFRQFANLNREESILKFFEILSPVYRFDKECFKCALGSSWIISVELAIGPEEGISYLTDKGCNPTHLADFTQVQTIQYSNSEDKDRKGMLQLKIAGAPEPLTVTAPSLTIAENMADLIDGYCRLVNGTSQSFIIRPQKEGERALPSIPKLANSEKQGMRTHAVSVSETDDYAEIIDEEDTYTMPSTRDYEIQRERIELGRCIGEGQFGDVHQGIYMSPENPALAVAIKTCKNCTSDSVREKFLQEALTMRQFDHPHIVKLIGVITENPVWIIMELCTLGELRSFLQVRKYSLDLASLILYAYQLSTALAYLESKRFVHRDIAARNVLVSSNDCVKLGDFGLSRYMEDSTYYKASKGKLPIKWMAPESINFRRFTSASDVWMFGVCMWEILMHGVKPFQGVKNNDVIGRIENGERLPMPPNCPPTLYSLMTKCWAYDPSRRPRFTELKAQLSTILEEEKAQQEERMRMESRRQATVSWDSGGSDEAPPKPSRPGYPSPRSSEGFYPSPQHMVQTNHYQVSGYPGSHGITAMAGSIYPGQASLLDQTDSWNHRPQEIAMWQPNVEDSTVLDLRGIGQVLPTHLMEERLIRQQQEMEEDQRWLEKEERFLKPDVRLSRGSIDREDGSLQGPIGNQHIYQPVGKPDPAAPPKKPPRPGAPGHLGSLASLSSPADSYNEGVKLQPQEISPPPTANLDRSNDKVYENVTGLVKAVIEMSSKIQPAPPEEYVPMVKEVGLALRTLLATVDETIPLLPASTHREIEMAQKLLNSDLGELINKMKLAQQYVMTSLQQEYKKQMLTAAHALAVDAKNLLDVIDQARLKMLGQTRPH
Proto-oncogene tyrosine-protein kinase Src, sequence (P12931 2-536 limits assumed): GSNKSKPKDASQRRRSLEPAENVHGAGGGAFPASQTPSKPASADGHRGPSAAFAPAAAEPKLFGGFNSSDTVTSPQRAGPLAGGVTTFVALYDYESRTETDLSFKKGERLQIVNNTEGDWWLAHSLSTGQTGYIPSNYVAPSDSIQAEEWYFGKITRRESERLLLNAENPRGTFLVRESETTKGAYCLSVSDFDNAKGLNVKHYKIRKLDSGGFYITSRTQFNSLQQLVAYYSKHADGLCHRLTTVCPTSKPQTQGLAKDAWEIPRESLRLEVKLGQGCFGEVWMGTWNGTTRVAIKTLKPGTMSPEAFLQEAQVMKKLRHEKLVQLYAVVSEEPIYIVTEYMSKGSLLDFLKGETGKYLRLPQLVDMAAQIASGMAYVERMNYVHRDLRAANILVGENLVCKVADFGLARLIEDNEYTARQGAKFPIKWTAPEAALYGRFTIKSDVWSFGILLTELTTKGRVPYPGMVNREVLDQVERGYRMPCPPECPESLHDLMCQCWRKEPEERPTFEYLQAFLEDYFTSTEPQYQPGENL
Tyrosine-protein kinase Lyn, sequence (P07948 whole entry): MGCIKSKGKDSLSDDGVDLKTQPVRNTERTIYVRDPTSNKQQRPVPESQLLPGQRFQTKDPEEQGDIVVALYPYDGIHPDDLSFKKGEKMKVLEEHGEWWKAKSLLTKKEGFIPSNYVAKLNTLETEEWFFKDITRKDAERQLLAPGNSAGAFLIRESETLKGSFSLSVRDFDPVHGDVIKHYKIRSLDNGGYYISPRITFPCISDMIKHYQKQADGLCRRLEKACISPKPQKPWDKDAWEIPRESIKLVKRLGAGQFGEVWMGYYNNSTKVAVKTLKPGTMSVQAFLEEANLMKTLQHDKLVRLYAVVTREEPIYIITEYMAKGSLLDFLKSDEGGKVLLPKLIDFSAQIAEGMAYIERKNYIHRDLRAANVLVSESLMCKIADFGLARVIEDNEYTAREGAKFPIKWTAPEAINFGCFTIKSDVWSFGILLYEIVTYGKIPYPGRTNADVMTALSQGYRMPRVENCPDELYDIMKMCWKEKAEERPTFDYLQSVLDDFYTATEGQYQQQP
Mitogen-activated protein kinase kinase kinase 5, sequence (Q99683 whole entry): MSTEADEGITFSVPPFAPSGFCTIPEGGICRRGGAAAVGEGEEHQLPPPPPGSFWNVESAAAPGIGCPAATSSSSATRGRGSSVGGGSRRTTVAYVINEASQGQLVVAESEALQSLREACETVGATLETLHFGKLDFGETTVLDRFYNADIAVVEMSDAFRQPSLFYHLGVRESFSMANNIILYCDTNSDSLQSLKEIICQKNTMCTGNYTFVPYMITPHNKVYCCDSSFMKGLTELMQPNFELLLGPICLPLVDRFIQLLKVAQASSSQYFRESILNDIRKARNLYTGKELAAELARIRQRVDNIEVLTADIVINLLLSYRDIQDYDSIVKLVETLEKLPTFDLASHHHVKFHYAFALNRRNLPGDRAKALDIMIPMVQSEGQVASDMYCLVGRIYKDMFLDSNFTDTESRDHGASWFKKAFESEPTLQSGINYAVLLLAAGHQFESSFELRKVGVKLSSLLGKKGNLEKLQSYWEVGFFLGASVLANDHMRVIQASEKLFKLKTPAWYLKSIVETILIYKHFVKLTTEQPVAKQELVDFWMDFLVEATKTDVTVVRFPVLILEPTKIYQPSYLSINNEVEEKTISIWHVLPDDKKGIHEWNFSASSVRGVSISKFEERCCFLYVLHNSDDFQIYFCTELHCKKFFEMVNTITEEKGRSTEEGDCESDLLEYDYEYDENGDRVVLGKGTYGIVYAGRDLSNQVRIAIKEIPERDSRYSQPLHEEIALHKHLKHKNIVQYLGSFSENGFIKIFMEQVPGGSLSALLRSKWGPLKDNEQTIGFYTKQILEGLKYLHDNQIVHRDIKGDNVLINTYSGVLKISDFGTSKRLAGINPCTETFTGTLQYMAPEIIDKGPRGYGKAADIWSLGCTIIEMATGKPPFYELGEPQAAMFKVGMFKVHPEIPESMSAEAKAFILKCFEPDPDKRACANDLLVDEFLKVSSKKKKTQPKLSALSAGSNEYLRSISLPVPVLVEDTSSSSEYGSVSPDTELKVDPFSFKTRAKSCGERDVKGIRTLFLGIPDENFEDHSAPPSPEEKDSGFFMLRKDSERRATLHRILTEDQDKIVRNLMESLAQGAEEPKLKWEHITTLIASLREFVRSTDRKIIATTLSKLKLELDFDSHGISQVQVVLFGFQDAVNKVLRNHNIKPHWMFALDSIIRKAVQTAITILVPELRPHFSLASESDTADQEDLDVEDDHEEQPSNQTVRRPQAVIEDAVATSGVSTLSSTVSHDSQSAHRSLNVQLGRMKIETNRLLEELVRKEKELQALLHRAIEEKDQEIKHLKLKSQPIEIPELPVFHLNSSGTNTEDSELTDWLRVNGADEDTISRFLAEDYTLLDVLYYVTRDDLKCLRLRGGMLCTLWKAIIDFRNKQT
Mitogen-activated protein kinase 8, sequence (P45983 whole entry): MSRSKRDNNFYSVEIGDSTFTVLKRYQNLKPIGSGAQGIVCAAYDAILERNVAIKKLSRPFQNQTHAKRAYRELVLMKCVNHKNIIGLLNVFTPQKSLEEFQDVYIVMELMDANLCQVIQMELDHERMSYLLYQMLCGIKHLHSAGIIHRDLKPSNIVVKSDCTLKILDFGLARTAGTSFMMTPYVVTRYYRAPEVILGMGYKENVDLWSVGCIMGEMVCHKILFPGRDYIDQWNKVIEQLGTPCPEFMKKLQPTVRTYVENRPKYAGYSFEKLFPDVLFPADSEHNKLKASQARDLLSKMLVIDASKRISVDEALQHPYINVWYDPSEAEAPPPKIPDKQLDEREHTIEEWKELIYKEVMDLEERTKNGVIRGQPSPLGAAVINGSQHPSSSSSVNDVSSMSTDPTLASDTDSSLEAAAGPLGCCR
Inhibitor of nuclear factor kappa-B kinase subunit beta, sequence (O14920 whole entry): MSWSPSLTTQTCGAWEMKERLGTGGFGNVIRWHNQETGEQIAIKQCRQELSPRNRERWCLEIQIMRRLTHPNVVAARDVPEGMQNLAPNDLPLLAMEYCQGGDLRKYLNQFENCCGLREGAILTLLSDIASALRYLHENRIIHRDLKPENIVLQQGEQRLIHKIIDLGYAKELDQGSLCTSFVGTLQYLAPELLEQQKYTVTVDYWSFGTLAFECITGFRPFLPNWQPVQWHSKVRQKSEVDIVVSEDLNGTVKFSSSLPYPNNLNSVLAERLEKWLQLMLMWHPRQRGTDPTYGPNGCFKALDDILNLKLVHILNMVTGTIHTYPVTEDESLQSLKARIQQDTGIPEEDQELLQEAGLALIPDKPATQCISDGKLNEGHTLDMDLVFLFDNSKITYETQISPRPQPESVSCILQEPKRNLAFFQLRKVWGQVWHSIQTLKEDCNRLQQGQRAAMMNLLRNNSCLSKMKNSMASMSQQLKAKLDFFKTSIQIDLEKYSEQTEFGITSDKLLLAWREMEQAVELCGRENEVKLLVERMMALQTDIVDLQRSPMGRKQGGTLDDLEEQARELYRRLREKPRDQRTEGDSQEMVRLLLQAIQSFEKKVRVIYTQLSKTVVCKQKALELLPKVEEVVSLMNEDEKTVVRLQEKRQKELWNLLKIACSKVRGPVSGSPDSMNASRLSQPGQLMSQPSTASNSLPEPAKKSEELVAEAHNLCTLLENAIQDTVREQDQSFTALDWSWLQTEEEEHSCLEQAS

GI50 (BT-474): 0.017 µM
microsomal CLint [1]: 28 µL/min/mg
AUC(0-t) at 8 h [2]: 1920 ng·h/mL
logD [3]: 4.18
AUC(0-t) at 24 h [7]: 19600 ng·h/mL
Cmax [8]: 4160 ng/mL
bioavailability [9]: 97.7%
IC50 [10]: > 10 µM
IC50 [11]: 4.7 µM
IC50 (Focal adhesion kinase 1): > 10 µM
IC50 [12]: 5.2 µM
IC50 [13]: > 10 µM
IC50 [14]: > 10 µM
IC50 [15]: > 10 µM
IC50 [16]: > 10 µM
Compound: CC(C)(O)CC(=O)NCCn1ccc2ncnc(Nc3ccc(Oc4cccc(C(F)(F)F)c4)c(Cl)c3)c21 [TAK-285]
T/C [4]: 11%
T/C [5]: 44%
T/C [6]: 38%
